Earlier results on 4 molecules are cited in patent US9834755B2, “Compositions and methods for enhanced generation of hematopoietic stem/progenitor cells” (FRED HUTCHINSON CANCER RESEARCH CENTER, priority 2011, dated 2017).

In the series the test system is CD34+ cells. The following applies: cited from earlier work.
A word on the EC50: it is the concentration giving half of the maximal effect. Turning to `CC(C)n1cnc2c(NCCc3ccc(O)cc3)nc(-c3cncc(F)c3)nc21` [Example 134], the EC50 was 200 nM. For `CC(C)n1cnc2c(NCCc3ccc(O)cc3)nc(-c3cnccc3C#N)nc21` [Example 143], the EC50 is 4300 nM. `CC(C)n1cnc2c(NCCc3ccc(O)cc3)nc(-c3cccc4cnccc34)nc21` [Example 145]: the EC50 is 5400 nM.

Take `Fc1cncc(-c2nc(NCCc3c[nH]c4ccccc34)c3ncn(C4CCOC4)c3n2)c1` (stereo not shown) [Example 158]: the EC50 was 12 nM.
